From ChEMBL document CHEMBL1201862, “PubChem BioAssay data set” (2004)
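A five-concentration, 48-hour dose response in 96-well plates underlies each endpoint, interpolated linearly between surrounding concentrations. GI50 is the concentration that inhibits growth by half.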 Active and inactive are the calls of the source. Cut-off read from the data, not from the text of the source: active = GI50 up to about 1.1 µM and inactive = higher.

What was measured:
Test in all cases: growth of human tumour cells (NCI), 48 h
MDA-MB-231 = test system: MDA-MB-231
SK-OV-3 = test system: SK-OV-3
OVCAR-8 = test system: OVCAR-8
NCI-H460 = test system: NCI-H460
PC-3 = test system: PC-3
A498 = test system: A498
SK-MEL-5 = test system: SK-MEL-5
UACC-62 = test system: UACC-62
A549 = test system: A549
Malme-3M = test system: Malme-3M
MDA-MB-435 = test system: MDA-MB-435
RPMI-8226 = test system: RPMI-8226
COLO 205 = test system: COLO 205
SF-268 = test system: SF-268
UACC-257 = test system: UACC-257
SF-539 = test system: SF-539
SK-MEL-28 = test system: SK-MEL-28
ACHN = test system: ACHN
OVCAR-5 = test system: OVCAR-5
HOP-62 = test system: HOP-62
HL-60 = test system: HL-60
NCI-H522 = test system: NCI-H522
MCF7 = test system: MCF7
DU-145 = test system: DU-145
HCT-15 = test system: HCT-15
LOX IMVI = test system: LOX IMVI
KM12 = test system: KM12
786-0 = test system: 786-0
CCRF-CEM = test system: CCRF-CEM
RXF 393 = test system: RXF 393
NCI/ADR-RES = test system: NCI/ADR-RES
SNB-19 = test system: SNB-19
HT-29 = test system: HT-29
MDA-N = test system: MDA-N
CAKI-1 = test system: CAKI-1
SNB-75 = test system: SNB-75
HOP-92 = test system: HOP-92
SR = test system: SR
M14 = test system: M14
UO-31 = test system: UO-31
Hs-578T = test system: Hs-578T
EKVX = test system: EKVX
BT-549 = test system: BT-549
TK-10 = test system: TK-10
HCT-116 = test system: HCT-116
OVCAR-3 = test system: OVCAR-3
NCI-H23 = test system: NCI-H23
IGROV-1 = test system: IGROV-1
T47D = test system: T47D
SW-620 = test system: SW-620
MOLT-4 = test system: MOLT-4
K562 = test system: K562
HCC 2998 = test system: HCC 2998
SF-295 = test system: SF-295
SK-MEL-2 = test system: SK-MEL-2
U-251 = test system: U-251
NCI-H226 = test system: NCI-H226
OVCAR-4 = test system: OVCAR-4
SN12C = test system: SN12C

Measured: GI50

O=C(O)c1ccc(Nc2nc3cc(C(F)(F)F)ccc3n3cccc23)cc1
23.3 µM: HCT-15
inactive: MDA-MB-231 19.7 µM | SK-OV-3 40.1 µM | OVCAR-8 49.5 µM | NCI-H460 16.1 µM | PC-3 25.5 µM | A498 42 µM | SK-MEL-5 17.1 µM | UACC-62 23.9 µM | A549 30.5 µM | Malme-3M 84.7 µM | MDA-MB-435 34.7 µM | RPMI-8226 12.5 µM | COLO 205 22.5 µM | SF-268 40.6 µM | UACC-257 30.2 µM | SF-539 23.3 µM | SK-MEL-28 46.2 µM | ACHN 24.9 µM | OVCAR-5 40.8 µM | HOP-62 41 µM | HL-60 18.4 µM | NCI-H522 23.4 µM | MCF7 35.6 µM | DU-145 49.2 µM | LOX IMVI 10.2 µM | KM12 19.8 µM | 786-0 22.7 µM | CCRF-CEM 16.5 µM | RXF 393 17.1 µM | NCI/ADR-RES 61.9 µM | SNB-19 54 µM | HT-29 10.4 µM | MDA-N 54.6 µM | CAKI-1 47.3 µM | SNB-75 24.1 µM | HOP-92 64.6 µM | SR 14.3 µM | M14 25.1 µM | UO-31 > 100 µM | Hs-578T 44.4 µM | EKVX 62.4 µM | BT-549 35.7 µM | TK-10 28.2 µM | HCT-116 23.1 µM | OVCAR-3 30.2 µM | NCI-H23 35.8 µM | IGROV-1 29.5 µM | T47D 17.3 µM | SW-620 34.7 µM | MOLT-4 25.1 µM | K562 15.3 µM | HCC 2998 15.7 µM | SF-295 27.2 µM | SK-MEL-2 31.3 µM | U-251 21.3 µM

COc1ccc2c(c1)/C(=C(\C(Cl)=C(Cl)Cl)[N+](=O)[O-])N2
inactive: MDA-MB-231 > 100 µM | SK-OV-3 > 100 µM | OVCAR-8 92.5 µM | NCI-H460 > 100 µM | NCI-H226 22.3 µM | PC-3 72.1 µM | OVCAR-4 49.1 µM | A498 92.7 µM | SK-MEL-5 41 µM | UACC-62 > 100 µM | A549 > 100 µM | Malme-3M 88.9 µM | MDA-MB-435 51.2 µM | COLO 205 > 100 µM | SF-268 70.3 µM | UACC-257 > 100 µM | SK-MEL-28 > 100 µM | ACHN > 100 µM | OVCAR-5 > 100 µM | HOP-62 > 100 µM | HL-60 > 100 µM | NCI-H522 25.3 µM | MCF7 > 100 µM | DU-145 > 100 µM | LOX IMVI 76.4 µM | KM12 > 100 µM | 786-0 69.8 µM | CCRF-CEM 31.1 µM | RXF 393 39.5 µM | NCI/ADR-RES 79.8 µM | SNB-19 > 100 µM | HT-29 > 100 µM | MDA-N 83.2 µM | CAKI-1 90.6 µM | SNB-75 35.7 µM | HOP-92 > 100 µM | SR 11 µM | M14 > 100 µM | UO-31 > 100 µM | Hs-578T 80.2 µM | EKVX 26.7 µM | BT-549 49.7 µM | TK-10 > 100 µM | HCT-116 > 100 µM | OVCAR-3 28.2 µM | NCI-H23 87.7 µM | IGROV-1 > 100 µM | T47D 67.3 µM | SW-620 73.8 µM | MOLT-4 24.2 µM | K562 39 µM | SN12C > 100 µM | HCC 2998 > 100 µM | SF-295 62.4 µM | U-251 91.2 µM
> 100 µM: HCT-15
